Literature values as cited in patent US8440702B2, “1,3-oxazolidin -2-one derivatives useful as CETP inhibitors” (Merck Sharp & Dohme Corp., priority 2005, dated 2013).

Conditions: clinical trials terminated

For `CCOC(=O)N1c2ccc(C(F)(F)F)cc2[C@@H](N(Cc2cc(C(F)(F)F)cc(C(F)(F)F)c2)C(=O)OC)C[C@H]1CC` [torcetrapib], the “mortality in patients using the drug during outcomes studies” value is given as “increased mortality”.
